Assay results from US3932664A, “Substituted phenoxyalkyl quaternary ammonium compounds as antiarrhythemic agents” (priority 1974, dated 1976).
Where two headings read alike, the source gives them in different places.

Columns and labels:
[1] = tested on: ouabain-induced ventricular tachycardia in dogs; assay: conversion of ouabain-induced ventricular tachycardia to normal sinus rhythm in anesthetized dogs; assay type: in vivo, dog; conditions: for minimal effective dose: Canis lupus familiaris, iv, read-out: Conversion Dose
From the text: Ventricular tachycardia is produced in dogs in a method similar to the method of Lucchesi and Hardman (J. Pharmacol. Exptl. Therap., 132, 372, 1961) by the administration of ouabain. In such operations, a dog is anesthetized by the intravenous administration of pentobarbital sodium at a dosage rate of 30 milligrams per kilogram. A femoral artery is cannulated with polyethylene tubing for measurements of blood pressure. A femoral vein is similarly cannulated for administration of ouabain and administration of the test compound. Hypodermic needle electrodes are employed for recording electrocardiograms. In such operations, ouabain is administered intravenously by infusion at a constant rate via the cannulated femoral vein. The infusion rate is 35 micrograms of ouabain per kilogram of animal body weight per hour. Within 1 to 1.5 hours following the start of the infusion, a ventricular tachycardia is seen to develop.
After ventricular tachycardia is observed, a test compound is administered intravenously by administration of varying amounts of a composition comprising 50 milligrams of the test compound as a sterile solution in 10 milliliters of water containing 0.9 percent sodium chloride. Each dose is administered slowly over a period of 15 to 30 seconds. The compound is administered at an initial dosage rate of 0.25 milligram of test compound per kilogram of animal body weight. Blood pressure and electrocardiogram are observed for 5 minutes after administration. When a complete conversion from the arrhythmic condition to normal sinus rhythm is not observed within the 5 minute period, a second dose of 0.50 milligram of the test compound per kilogram is administered by a similar procedure and blood pressure and heartbeat are similarly observed for 5 minutes. When complete conversion of the ventricular tachycardia to normal sinus rhythm is not observed, the dosage is increased two-fold every five minutes until complete conversion is obtained. The animal is then observed and the duration of the period of normal cardiac rhythm produced by administration of the test compound is recorded as the duration of antiarrhythmic activity. The termination of the period of normal activity is marked by the reappearance of ventricular tachycardia or fibrillation as indicated by the electrocardiogram observations. The antiarrhythmic dosage of test compound sufficient to bring about a complete conversion of the cuabain-induced tachycardia, and the duration of the period of normal cardiac activity are set out below.
The procedure of Example 26 is repeated, employing the compound of Example 1, [ 2-(4-amino-2,6-dibromophenoxy)-ethyl]-dimethyl(2-methylallyl)ammoniumchloride, as a test compound. In these operations two groups of three dogs each are administered the test compound intravenously at anti-arrhythmic dosage rates of 1 and 2 milligrams per kilogram after ectopic ventricular rhythms have been established by continuous infusion of cuabain.

[2] = blood and heart tissue levels in mice after intravenous and oral administration; assay type: in vivo; conditions: mouse; for concentration at 0.5 h: oral 6 mg/kg, thirty minutes after administration
Method: [2-(4-amino-2,6-dibromophenoxy)ethyl]dimethyl-(allyl)ammonium bromide is administered to mice intravenously and orally. The animals are thereafter sacrificed and blood and heart tissue analyses are carried out to ascertain the concentration of test compound present. In such operations mice intravenously administered the test compound at a rate of 6 milligrams per kilogram are found to have blood levels of 27 micrograms of test compound per milliliter 10 seconds after injection, 2.1 micrograms per milliliter 3 minutes after injection. Analysis of heart tissue indicates a concentration of 5.5 micrograms of test compound per gram of tissue 10 minutes after injection. Similar analyses are carried out with animals administered 6 milligrams of test compound per kilogram orally. Thirty minutes after oral administration, blood and heart levels of 1.1 and 5.1 micrograms, respectively, of test compound per milliliter of blood or gram of heart tissue, respectively, are found.

[3] = dog, intravenous, dose giving complete conversion of ouabain-induced tachycardia to normal sinus rhythm
[4] = dog, intravenous, at conversion dose 1 mg/kg
[5] = dog, intravenous, at conversion dose 2 mg/kg
[6] = dog, intravenous, at conversion dose 0.5 mg/kg

Row | SMILES | minimal effective dose [1, 3] [mg/kg] | Duration (period of normal cardiac rhythm) [1, 4] [min] | further results
1 | CCOC(=O)C[N+](C)(C)CCOc1c(Br)cc(N)cc1Br [Example 2, [2-(4-amino-2,6-dibromophenoxy)ethyl]dimethyl(ethylcarboxymethyl) ammonium bromide] | 1 | 2.6 | Duration (period of normal cardiac rhythm) [1, 5]: 3.5 min
2 | C[N+](C)(CCOc1c(Br)cc(N)cc1Br)Cc1ccccc1Cl.[Cl-] [Example 3, [2-(4-amino-2,6-dibromophenoxy)-ethyl]dimethyl(2-chlorobenzyl)ammonium chloride] | 1 | 12.5 | –
3 | C#CC[N+](C)(C)CCOc1c(Br)cc(N)cc1Br.[Br-] [Example 4, [2-(4-amino-2,6-dibromo-phenoxy)ethyl]dimethyl(2-propynyl)ammonium bromide] | 0.5 | – | Duration (period of normal cardiac rhythm) [1, 6]: 24 min
4 | CC(=O)C[N+](C)(C)CCOc1c(Br)cc(N)cc1Br.[Cl-] [Example 5, [2-(4-amino-2,6-dibromophenoxy)ethyl]dimethyl(acetonyl)ammonium chloride] | 1 | 11 | –
5 | C=CC[N+](C)(C)CCOc1c(Br)cc(N)cc1Br.[Br-] [Example 6, [2-(4-amino-2,6-dibromophenoxy)ethyl]dimethyl(allyl)ammonium bromide] | 1 | 6 | concentration at 10 s ([2]; blood, intravenous 6 mg/kg, 10 seconds after injection, read-out: blood level): 27 µg/mL; concentration at 0.05 h ([2]; blood, intravenous 6 mg/kg, 3 minutes after injection, read-out: blood level): 2.1 µg/mL; concentration at 0.5 h ([2]; blood, read-out: blood level): 1.1 µg/mL; concentration at 10 min ([2]; heart, intravenous 6 mg/kg, 10 minutes after injection): 5500 ng/g; concentration at 0.5 h ([2]; heart, read-out: heart level): 5100 ng/g
6 | C[N+](C)(CCO)CCOc1c(Br)cc(N)cc1Br [Example 7] | 1 | 25 | –
7 | C[N+](C)(CCOc1c(Br)cc(N)cc1Br)CC(=O)c1ccc(Cl)c(Cl)c1 [Example 8] | 16 | – | Duration (period of normal cardiac rhythm) ([1]; dog, intravenous, at conversion dose 16 mg/kg): 10 min
8 | C[N+](C)(CCOc1c(Br)cc(N)cc1Br)CCc1ccccc1 [Example 9] | 2 | – | Duration (period of normal cardiac rhythm) [1, 5]: 3.5 min
9 | C[N+](C)(CC=CCl)CCOc1c(Br)cc(N)cc1Br [Example 10] | 1 | 3 | –
10 | C[N+](C)(CCOc1c(Br)cc(N)cc1Br)Cc1ccccc1 [Example 11] | 1 | 8.5 | –
11 | C[N+](C)(CCOc1c(Br)cc(N)cc1Br)Cc1ccc(Cl)cc1 [Example 12] | 1 | 9.5 | –
12 | C[N+](C)(CCOc1c(Br)cc(N)cc1Br)Cc1ccc(Cl)cc1Cl [Example 13] | 0.5 | – | Duration (period of normal cardiac rhythm) [1, 6]: 4 min
13 | C[N+](C)(CCOc1c(Br)cc(N)cc1Br)Cc1ccc(Cl)c(Cl)c1 [Example 14] | 2 | – | Duration (period of normal cardiac rhythm) [1, 5]: 14 min
14 | C=C(C)C[N+](C)(C)CCOc1c(Cl)cc(N)cc1Cl.[Cl-] [Example 15, [2-(4-amino-2,6-dichlorophenoxy)ethyl]dimethyl(2-methylallyl)-ammonium chloride] | 0.5 | – | Duration (period of normal cardiac rhythm) [1, 6]: 4.5 min
15 | C=CC[N+](CC)(CC)CCOc1c(Br)cc(N)cc1Br.[Br-] [Example 16, [2-(4-amino-2,6-dibromophenoxy)ethyl]diethyl(allyl)ammonium bromide] | 2 | – | Duration (period of normal cardiac rhythm) [1, 5]: 6.5 min
16 | C=CC[N+](C)(C)CCCOc1c(Br)cc(N)cc1Br.[Br-] [Example 17, [3-(4-amino-2,6-dibromophenoxy)propyl]dimethyl(allyl)ammonium bromide] | 1 | 6 | –
17 | C[N+](C)(CC#N)CCOc1c(Br)cc(N)cc1Br.O=S(=O)([O-])c1ccccc1 [Example 18, [2-(4-amino-2,6-dibromophenoxy)ethyl]dimethyl(2-nitriloethyl)-ammonium benzenesulfonate] | – | 4 | minimal effective dose [1]: 1 mg/kg
18 | C=CC[N+](C)(C)CCOc1c(Br)cc(N)cc1Br.CS(=O)(=O)[O-] [Example 19, [2-(4-amino-2,6-dibromophenoxy)-ethyl]dimethyl(allyl)ammonium methanesulfonate] | 1 | 17.5 | Duration (period of normal cardiac rhythm) [1, 5]: 39.0 min
19 | Nc1cc(Br)c(OCC[N+]23CCC(CC2)CC3)c(Br)c1 [Example 20, [2-(4-amino-2,6-dibromophenoxy)ethyl] quinuclidinium bromide] | – | – | minimal effective dose [1]: 0.5 mg/kg; Duration (period of normal cardiac rhythm) [1, 6]: 1 min
20 | Br.C=CC[N+]1(CCOc2c(Br)cc(N)cc2Br)CCCC1.[Br-] [Example 21, 1-[2-(4-amino-2,6dibromophenoxy)ethyl]-1-allyl pyrrolidinium bromide hydrobromide] | 2 | – | Duration (period of normal cardiac rhythm) [1, 5]: 1.5 min
21 | Br.C=CC[N+]1(CCOc2c(Br)cc(N)cc2Br)CCCCC1.[Br-] [Example 22, 1-[2-(4-amino-2,6-dibromophenoxy)ethyl]-1-allyl piperidinium bromide hydrobromide] | 1 | 6.5 | –
22 | C=CC[N+]1(CCOc2c(Br)cc(N)cc2Br)CCCCCC1 [Example 23, [2-(4-amino-2,6-dibromophenoxy)ethyl]-1-allylhexahydroazepinium bromide] | 0.5 | 7.5 | Duration (period of normal cardiac rhythm) [1, 6]: 3.3 min
23 | Cc1ccc[n+](CCOc2c(Br)cc(N)cc2Br)c1.[Br-] [Example 24, 1-[2-(4-amino-2,6-dibromo-phenoxy)ethyl]-3-picolinium bromide] | 0.5 | – | Duration (period of normal cardiac rhythm) [1, 6]: 38 min
24 | C=CC[N+](C)(C)CCCCOc1c(Br)cc(N)cc1Br.[Br-] [Example 25, [4-(4-amino-2,6-dibromophenoxy)-butyl]dimethyl(allyl) ammonium bromide] | 2 | – | Duration (period of normal cardiac rhythm) [1, 5]: 26 min
